According to patent US12662491B2 (Redona Therapeutics, Inc., priority 2020, dated 2026):

What follows are compounds tested against T1, Zcchc11 enzyme (Homo sapiens, UniProt Q5TAX3) (assay: TUTase assay (Zcchc11 assay, Lin28a-dependent polyuridylation of pre-let-7)). Conditions: LIN28A 10 nM, Zcchc11 0.2 nM, 5′-fluorescein pre-let-7 miRNA 2 nM, UTP 5 uM, room temperature, 30 minutes pre-incubation; read-out: Potency Lin28a-dep Z11 IC50.
T1 construct: made in house; host or cells: HEK293 cells (Zcchc11); E. coli Rosetta II (LIN28A)
T1 sequence (Q5TAX3 212-1420): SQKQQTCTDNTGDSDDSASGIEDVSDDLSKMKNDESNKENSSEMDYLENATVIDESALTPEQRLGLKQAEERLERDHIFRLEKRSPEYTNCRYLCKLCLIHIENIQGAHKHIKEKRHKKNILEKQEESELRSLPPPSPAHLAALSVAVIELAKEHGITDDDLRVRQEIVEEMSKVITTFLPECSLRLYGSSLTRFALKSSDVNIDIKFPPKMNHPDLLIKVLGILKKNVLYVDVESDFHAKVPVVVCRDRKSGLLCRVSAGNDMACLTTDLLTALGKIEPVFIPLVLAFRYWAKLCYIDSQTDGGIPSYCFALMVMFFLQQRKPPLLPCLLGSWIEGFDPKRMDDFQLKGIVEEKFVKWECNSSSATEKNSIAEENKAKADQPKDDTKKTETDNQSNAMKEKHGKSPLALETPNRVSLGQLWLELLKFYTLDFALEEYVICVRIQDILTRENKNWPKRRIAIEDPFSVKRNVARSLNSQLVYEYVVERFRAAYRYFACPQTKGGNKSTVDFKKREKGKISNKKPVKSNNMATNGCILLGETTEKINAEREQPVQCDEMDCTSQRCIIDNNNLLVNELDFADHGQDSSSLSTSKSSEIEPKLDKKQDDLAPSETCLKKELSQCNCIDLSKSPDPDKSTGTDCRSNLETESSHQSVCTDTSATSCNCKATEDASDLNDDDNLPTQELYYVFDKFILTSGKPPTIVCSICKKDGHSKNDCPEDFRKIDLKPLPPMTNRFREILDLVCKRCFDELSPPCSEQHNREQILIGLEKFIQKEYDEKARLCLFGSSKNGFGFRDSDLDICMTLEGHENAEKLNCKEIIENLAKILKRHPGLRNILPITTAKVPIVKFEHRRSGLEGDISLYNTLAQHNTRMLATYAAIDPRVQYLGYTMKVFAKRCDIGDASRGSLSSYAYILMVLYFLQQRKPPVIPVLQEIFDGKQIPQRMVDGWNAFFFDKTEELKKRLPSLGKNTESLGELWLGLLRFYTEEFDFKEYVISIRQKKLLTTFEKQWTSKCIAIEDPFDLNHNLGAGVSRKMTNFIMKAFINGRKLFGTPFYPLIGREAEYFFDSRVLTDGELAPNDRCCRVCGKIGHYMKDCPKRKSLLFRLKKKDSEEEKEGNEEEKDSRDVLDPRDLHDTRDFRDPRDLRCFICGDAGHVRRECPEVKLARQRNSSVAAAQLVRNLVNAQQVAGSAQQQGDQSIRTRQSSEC
Assay type: biochemical
Method in brief: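 Readout: time-dependent quench of 5′-fluorescein pre-let-7 (2 nM) as 3′-rhodamine A20 probe anneals to poly(U) tails. Enzyme 0.2 nM Zcchc11 (res. 212-1420), LIN28A 10 nM, UTP 5 uM; pH 7.3 HEPES, 150 mM KCl, 5 mM MgCl2, RT. 4-parameter IC50; 100% = DMSO, 0% = no UTP.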

IC50 [nM] | SMILES
≤ 1000 | CN(C)C1CN(c2ccc(-n3cc(C(=O)O)c(=O)c4cc(Cl)c(N5CC(C6CCC6)C[C@@H]5COc5ncccc5Cl)cc43)cn2)C1 (stereo partly drawn) [Example 63, 6-chloro-7-((2R)-2-(((3-chloropyridin-2-yl)oxy)methyl)-4-cyclobutylpyrrolidin-1-yl)-1-(6-(3-(dimethylamino)azetidin-1-yl)pyridin-3-yl)-4-oxo-1,4-dihydroquinoline-3-carboxylic acid]
10000 to 50000 | Cc1cc2c(=O)c(C(=O)O)cn(-c3ccc(N4CC(N(C)C)C4)nc3)c2cc1N1C(=O)CC1COc1ccccn1 (stereo not shown) [Example 52, 1-(6-(3-(dimethylamino)azetidin-1-yl)pyridin-3-yl)-6-methyl-4-oxo-7-(2-oxo-4-((pyridin-2-yloxy)methyl)azetidin-1-yl)-1,4-dihydroquinoline-3-carboxylic acid]
1000 to 10000 | CC(Oc1ncccc1Cl)[C@H]1CCCN1c1cc2c(cc1Cl)c(=O)c(C(=O)O)cn2-c1ccccc1 (stereo partly drawn) [Example 8, (R)-6-chloro-7-(2-(1-((3-chloropyridin-2-yl)oxy)ethyl)pyrrolidin-1-yl)-4-oxo-1-phenyl-1,4-dihydroquinoline-3-carboxylic acid]

Same assay, conditions: Lin28a-dependent Zcchc11 (Z11) TUTase activity; read-out: Potency Lin28a-dep Z11 IC50

SMILES | IC50 [nM]
CN(C)C1CN(c2ccc(-n3cc(C(=O)O)c(=O)c4cc(Cl)c(N5CCC[C@]5(C)COc5ncccc5Cl)cc43)cn2)C1 [Compound 277, (R)-6-chloro-7-(2-(((3-chloropyridin-2-yl)oxy)methyl)-2-methyl-pyrrolidin-1-yl)-1-(6-(3-(dimethyl-amino)azetidin-1-yl)pyridin-3-yl)-4-oxo-1,4-dihydro-quinoline-3-carboxylic acid formic acid] | ≤ 1000
Cc1ccc(-n2cc(C(=O)O)c(=O)c3cc(F)c(N4CCC[C@@H]4COc4ccccn4)cc32)c(C)c1 [Compound 156, (R)-1-(2,4-dimethyl-phenyl)-6-fluoro-4-oxo-7-(2-((pyridin-2-yloxy)methyl)pyrrolidin-1-yl)-1,4-dihydro-quinoline-3-carboxylic acid] | 1000 to 10000
O=C(O)c1cn(-c2ccc(F)cc2)c2cc(N3CCC[C@@H]3COc3ccccn3)c(F)cc2c1=O [Compound 151, (R)-6-fluoro-1-(4-fluorophenyl)-4-oxo-7-(2-((pyridin-2-yloxy)methyl)pyrrolidin-1-yl)-1,4-dihydro-quinoline-3-carboxylic acid] | ≤ 1000
Cc1cccnc1OC[C@H]1CCCN1c1cc2c(cc1F)c(=O)c(C(=O)O)cn2-c1cnn(C)c1 [Compound 291, (R)-6-fluoro-1-(1-methyl-1H-pyrazol-4-yl)-7-(2-(((3-methylpyridin-2-yl)oxy)methyl)pyrrolidin-1-yl)-4-oxo-1,4-dihydro-quinoline-3-carboxylic acid] | ≤ 1000
Cc1cccnc1OC[C@H]1CCCN1c1cc2c(cc1F)c(=O)c(C(=O)O)cn2-c1ccc(CO)cc1F [Compound 123, (R)-6-fluoro-1-(2-fluoro-4-(hydroxy-methyl)phenyl)-7-(2-(((3-methylpyridin-2-yl)oxy)methyl)pyrrolidin-1-yl)-4-oxo-1,4-dihydro-quinoline-3-carboxylic acid] | ≤ 1000
COc1ccc(Cl)c(OC[C@H]2C[C@@H](c3cccnc3)CN2c2cc3c(cc2Cl)c(=O)c(C(=O)O)cn3-c2ccc(N3CC(N(C)C)C3)nc2)n1 [Compound 345, 6-chloro-7-((2R,4S)-2-(((3-chloro-6-methoxy-pyridin-2-yl)oxy)methyl)-4-(pyridin-3-yl)pyrrolidin-1-yl)-1-(6-(3-(dimethyl-amino)azetidin-1-yl)pyridin-3-yl)-4-oxo-1,4-dihydro-quinoline-3-carboxylic acid] | ≤ 1000

The next lines start with the values.

IC50 [nM] | SMILES
≤ 1000 | Cc1cccnc1OC[C@H]1CCCN1c1cc2c(cc1F)c(=O)c(C(=O)O)cn2-c1ccc(O)c(Cl)c1 [Compound 122, (R)-1-(3-chloro-4-hydroxy-phenyl)-6-fluoro-7-(2-(((3-methylpyridin-2-yl)oxy)methyl)pyrrolidin-1-yl)-4-oxo-1,4-dihydro-quinoline-3-carboxylic acid]
≤ 1000 | Cc1cccnc1OC[C@H]1CCCN1c1cc2c(cc1Cl)c(=O)c(C(=O)O)cn2-c1ccccc1 [Compound 103, (R)-6-chloro-7-(2-(((3-methyl-pyridin-2-yl)oxy)methyl)pyrrolidin-1-yl)-4-oxo-1-phenyl-1,4-dihydro-quinoline-3-carboxylic acid]
≤ 1000 | CN1CC(n2cc(-n3cc(C(=O)O)c(=O)c4cc(Cl)c(N5CCC[C@@H]5COc5ncccc5Cl)cc43)cn2)C1 (racemic) [Compound 175, rac-(R)-6-chloro-7-(2-(((3-chloropyridin-2-yl)oxy)methyl)pyrrolidin-1-yl)-1-(1-(1-methylazetidin-3-yl)-1H-pyrazol-4-yl)-4-oxo-1,4-dihydro-quinoline-3-carboxylic acid]
≤ 1000 | CN(C)C1CN(c2ccc(-n3cc(C(=O)O)c(=O)c4cc(Cl)c(N5CCC[C@@H]5COc5ncccc5Cl)cc43)cn2)C1 [Compound 318, 6-Chloro-7-[(2R)-2-[[(3-chloropyridin-2-yl)oxy]methyl]pyrrolidin-1-yl]-1-[6-[3-(dimethyl-amino)azetidin-1-yl]pyridin-3-yl]-4-oxoquinoline-3-carboxylic acid]

Same assay, conditions: Lin28a-dependent Zcchc11 (Z11) TUTase assay; read-out: Potency Lin28a-dep Z11 IC50

SMILES | IC50 [nM]
COc1cnc(OC[C@H]2CC3CC3N2c2cc3c(cc2Cl)c(=O)c(C(=O)O)cn3-c2ccc(N)nc2)c(Cl)c1 (stereo partly drawn) [Example 651, 1-(6-aminopyridin-3-yl)-6-chloro-7-((3R)-3-(((3-chloro-5-methoxypyridin-2-yl)oxy)methyl)-2-azabicyclo[3.1.0]hexan-2-yl)-4-oxo-1,4-dihydroquinoline-3-carboxylic acid] | ≤ 1000
Cc1cc(C)cc(-n2cc(C(=O)O)c(=O)c3cc(F)c(N4CCC[C@@H]4COc4ccccn4)cc32)c1 [Example 389, (R)-1-(3,5-dimethylphenyl)-6-fluoro-4-oxo-7-(2-((pyridin-2-yloxy)methyl)pyrrolidin-1-yl)-1,4-dihydroquinoline-3-carboxylic acid] | 1000 to 10000

The remaining lines, values ahead:

IC50 [nM] | SMILES
≤ 1000 | CN(C)C1CN(c2ccc(-n3cc(C(=O)O)c(=O)c4cc(Br)c(N5CCC[C@@H]5COc5ncccc5Cl)cc43)cn2)C1 [Example 537, (R)-6-bromo-7-(2-(((3-chloropyridin-2-yl)oxy)methyl)pyrrolidin-1-yl)-1-(6-(3-(dimethylamino)azetidin-1-yl)pyridin-3-yl)-4-oxo-1,4-dihydroquinoline-3-carboxylic acid]
≤ 1000 | O=C(O)c1cn(-c2ccc(CO)nc2)c2cc(N3CCC[C@@H]3COc3ncccc3Cl)c(Cl)cc2c1=O [Example 429, (R)-6-chloro-7-(2-(((3-chloropyridin-2-yl)oxy)methyl)pyrrolidin-1-yl)-1-(6-(hydroxymethyl)pyridin-3-yl)-4-oxo-1,4-dihydroquinoline-3-carboxylic acid]
≤ 1000 | COc1ccnc(OC[C@@H]2CCCN2c2cc3c(cc2Cl)c(=O)c(C(=O)O)cn3-c2ccc(N3CC(N(C)C)C3)nc2)c1Cl [Example 668, (S)-6-chloro-7-(2-(((3-chloro-4-methoxypyridin-2-yl)oxy)methyl)pyrrolidin-1-yl)-1-(6-(3-(dimethylamino)azetidin-1-yl)pyridin-3-yl)-4-oxo-1,4-dihydroquinoline-3-carboxylic acid]
≤ 1000 | O=C(O)c1cn(-c2cnc3[nH]ncc3c2)c2cc(N3CCC[C@@H]3COc3ncccc3Cl)c(Cl)cc2c1=O [Example 475, (R)-6-chloro-7-(2-(((3-chloropyridin-2-yl)oxy)methyl)pyrrolidin-1-yl)-4-oxo-1-(1H-pyrazolo[3,4-b]pyridin-5-yl)-1,4-dihydroquinoline-3-carboxylic acid]
